Measurements published in PubChem BioAssay (NCI).
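Exposure lasted 48 hours, with cells grown in 96-well plates and compounds tested at five concentrations. At the GI50, growth is halved. TGI denotes the concentration required for complete inhibition of growth.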

Experiments:
Experiment in all cases: DTP human tumour cell line panel, 48 h
[1] = tested on: K-562 leukemia
[2] = tested on: A549 NSCLC
[3] = tested on: SW-620 colon
[4] = tested on: UACC-62 melanoma
[5] = tested on: EKVX NSCLC
[6] = tested on: HCT-116 colon
[7] = tested on: SNB-19 CNS
[8] = tested on: 786-0 renal
[9] = tested on: CCRF-CEM leukemia
[10] = tested on: T-47D breast

Row | SMILES | TGI [1] [µM] | TGI [2] [µM] | TGI [3] [µM] | TGI [4] [µM] | TGI [5] [µM] | TGI [6] [µM] | TGI [7] [µM] | TGI [8] [µM] | TGI [9] [µM] | GI50 [1] [µM] | GI50 [2] [µM] | GI50 [3] [µM] | GI50 [4] [µM] | GI50 [5] [µM] | GI50 [6] [µM] | GI50 [7] [µM] | GI50 [8] [µM] | GI50 [9] [µM] | TGI [10] [µM] | GI50 [10] [µM]
1 | O=C1C2C(C(=O)N1c1ccccc1)C1c3ccccc3C2C2C(=O)N(c3ccccc3)C(=O)C21 (stereo not drawn) | > 100 | > 100 | > 100 | > 100 | > 100 | > 100 | > 100 | > 100 | > 100 | – | – | – | – | – | – | – | – | – | – | –
2 | CC(C)/C=C1\CCC(CN2CCOCC2)C1=O (stereo not drawn) | 9.06 | 72.6 | 8.08 | 36.3 | 36.8 | 23.4 | > 100 | 8.9 | 9.51 | – | – | – | – | – | – | – | – | – | – | –
3 | CCC[CH2][Sn]([CH2]CCC)([O]C(=O)c1cc(OC)c(OC)cc1OC)[O][Sn]([CH2]CCC)([CH2]CCC)[O]C(=O)c1cc(OC)c(OC)cc1OC | 8.43 | 3.5 | 0.536 | 0.715 | 3.09 | 1.82 | 1.08 | 0.698 | 0.422 | 0.0812 | 1.67 | 0.182 | 0.251 | 1.7 | 0.67 | 0.27 | 0.24 | 0.0421 | – | –
4 | C/C(CC(=O)NCCc1ccccc1)=N\NS(=O)(=O)c1ccc(C)cc1 | > 100 | > 100 | > 100 | > 100 | > 100 | > 100 | – | > 100 | > 100 | – | – | – | – | – | – | – | – | – | – | –
5 | CN(C)Cc1ccc(-c2cc3onc(-c4ccccc4)c3c(=O)n2C)cc1 | 74.2 | 36.9 | 65.1 | 75 | > 100 | 30.3 | > 100 | 35 | – | – | – | – | – | – | – | – | – | – | 58.4 | –
6 | COC1C(OC(=O)c2ccc(C)[nH]2)C(O)C(Oc2ccc3c(O)c(NC(=O)c4c[nH]c(C(=O)Nc5c(O)c6ccc(OC7OC(C)(C)C(OC)C(OC(=O)c8ccc(C)[nH]8)C7O)c(C)c6oc5=O)c4C)c(=O)oc3c2C)OC1(C)C (stereo not drawn) | > 100 | 61.3 | 45.9 | 2.37 | 19.2 | – | 6.1 | 5.42 | 10.6 | – | – | – | – | – | – | – | – | – | – | –
7 | C=C1C(=O)O[C@H]2[C@H]1CC/C(COC(=O)CCCCCC(=O)OC/C1=C/CC[C@@]3(C)O[C@H]3[C@H]3OC(=O)C(=C)[C@@H]3CC1)=C\CC[C@@]1(C)O[C@@H]21 | 10.2 | 23.8 | 3.14 | 4.92 | 11.5 | – | 19.5 | 2.49 | 3.86 | 1.18 | 10.4 | 1.35 | 2.02 | 2.84 | – | 4.09 | 1.09 | 0.393 | 5.74 | 1.96
8 | COc1ccc(-c2cc(=O)n(-c3nc4ccccc4[nH]3)[nH]2)cc1OC | 25.7 | 81.9 | > 100 | 24.1 | – | > 100 | > 100 | > 100 | 38.1 | 3.73 | 4.72 | 3.41 | 3.79 | – | 5.83 | 7.06 | 12.4 | 2.66 | – | –
9 | C/C(CC(=O)Nc1cccc(Cl)c1C)=N\NC(N)=S | > 100 | > 100 | > 100 | > 100 | > 100 | > 100 | – | > 100 | > 100 | – | – | – | – | – | – | – | – | – | – | –
10 | C#C[C@]1(O)CC[C@H]2[C@@H]3CC=C4c5sc(Nc6cc(F)ccc6F)nc5CC[C@]4(C)[C@H]3CC[C@@]21C | > 100 | 7.86 | 4.38 | 3.75 | 3.06 | – | 3.23 | 1.84 | 4.81 | 1.96 | 2.51 | 1.78 | 1.74 | 1.53 | – | 1.6 | 0.415 | 0.669 | 7.69 | 2.49
11 | COc1ccccc1N=Nc1c(-c2ccccc2)nn(C(=O)CC(=O)Nc2cccc(C)c2)c1-c1ccccc1 | 52.7 | > 100 | > 100 | > 100 | > 100 | > 100 | > 100 | > 100 | > 100 | – | – | – | – | – | – | – | – | – | – | –
12 | CCO/C=C1\N=C(c2ccc(Cl)c(Cl)c2)OC1=O | > 100 | > 100 | > 100 | > 100 | > 100 | – | > 100 | > 100 | > 100 | – | – | – | – | – | – | – | – | – | – | –
13 | CCCCC(SC(=S)N1CCCC1)C(=O)Nc1nc(CC(=O)OCC)cs1 (stereo not drawn) | > 100 | > 100 | > 100 | > 100 | > 100 | > 100 | > 100 | > 100 | – | 15.6 | 31.7 | 68.6 | 76.4 | 56.4 | 28.9 | 65.1 | 62.2 | – | > 100 | 30.5
14 | CC(C)N(C(=O)c1cccc(C(=O)N(C(C)C)C(C)C)c1)C(C)C | > 100 | > 100 | > 100 | > 100 | > 100 | > 100 | > 100 | > 100 | > 100 | – | – | – | – | – | – | – | – | – | – | –
15 | O=C(Oc1cccc(Cl)c1)c1ccccc1Nc1ccnc(C(F)(F)F)c1 | 34.3 | 55.1 | 23.3 | 6.71 | 46.4 | 3.45 | – | 11.4 | 91.6 | 3.27 | 18.1 | 4.33 | 2.02 | 22.2 | 1.63 | – | 3.53 | 0.898 | – | –
16 | C#CC1(O)CCC2C3CCc4cc(Oc5nc(F)nc(-c6c7ccccc7c7n6CCS7)n5)ccc4C3CC[C@@]21C (stereo partly drawn) | > 100 | > 100 | > 100 | 86.2 | – | 25.8 | 70.6 | > 100 | 80.1 | – | – | – | – | – | – | – | – | – | – | –
17 | C=C1CC(CC)(CCN2C(=O)c3ccccc3C2=O)OC1=O (stereo not drawn) | > 100 | > 100 | 22.9 | 26.3 | 31.1 | 25.4 | – | 24.2 | > 100 | – | – | – | – | – | – | – | – | – | – | –
18 | COc1cc(CNc2nc3c(N)cc(C(F)(F)F)cc3nc2-c2ccccc2)cc(OC)c1OC | > 100 | > 100 | > 100 | > 100 | 25.6 | > 100 | > 100 | > 100 | > 100 | – | – | – | – | – | – | > 100 | – | > 100 | – | –
